Results taken from patent US5591758A, “Organic nitrates, processes for their preparation and their use in the treatment of cardiovascular diseases” (Laboratoires Hoechst, SA, priority 1991, dated 1997).
“And” between values parts separate entries of the source, which are not always exact repeats. Equal entries are not always repeated.

Tested on: anaesthetised dogs
Test: Tachyphylaxis model on anaesthetised dogs (repeated i.d. administration)
Format: in vivo, dogs (labrador/harrier cross)
Parameters: Δdp/dt average / ΔBPs / ΔBPd / ΔLVEDP / ΔHR / ΔBPs average / ΔBPd average / ΔLVEDP average / ΔHR average: unit not given here
Conditions: for ΔBPd / ΔBPs / ΔHR / ΔLVEDP / Δdp/dt: single dog
Description: Comparison with isosorbide mononitrate (IS-5-MN).
The product (46) is tested in a tachyphylaxis model on anaesthetised dogs. IS-5-MN is used as reference substance.
8 dogs of each sex, weighing between 16 and 24 kg, are used. These dogs are the progeny of a labrador/harrier cross. Anaesthesia is induced with the aid of sodium pentobarbital (45 mg/kg i.v.) and maintained by i.v. perfusion (flow rate: 8 mg/kg/h). The animals are ventilated, with the aid of a "Bird Mark 7" respirator, using ambient air, and catheterised. […] The arterial blood gases are measured at regular intervals.
IS-5-MN is also dissolved in water and given i.d. in a dosage of 5 mg/kg in a volume of 10 ml/animal.
Three hours (in the case of IS-5-MN) or four hours (in the case of (46)) after the first administration, the compounds are readministered in the same dosage and by the same route. The haemodynamic parameter chosen for the study of the tachyphylaxis is the systolic blood pressure (BPs), insofar as this parameter is very sensitive to the administration of the compounds.

[1] = 1st administration, 5 mg/kg i.d., 5 min
[2] = 1st administration, 5 mg/kg i.d., 10 min
[3] = 1st administration, 5 mg/kg i.d., 15 min
[4] = 1st administration, 5 mg/kg i.d., 30 min
[5] = 1st administration, 5 mg/kg i.d., 60 min
[6] = 1st administration, 5 mg/kg i.d., 120 min
[7] = 1st administration, 5 mg/kg i.d., 180 min
[8] = i.d., IS-5-MN 5 mg/kg, (46) 0.75 mg/kg
[9] = n = 4, 2nd administration, 5 mg/kg i.d., 5 min
[10] = n = 4, 2nd administration, 5 mg/kg i.d., 10 min
[11] = n = 4, 2nd administration, 5 mg/kg i.d., 15 min
[12] = n = 4, 2nd administration, 5 mg/kg i.d., 30 min
[13] = n = 4, 2nd administration, 5 mg/kg i.d., 60 min
[14] = n = 4, 2nd administration, 5 mg/kg i.d., 120 min
[15] = n = 4, 2nd administration, 5 mg/kg i.d., 180 min
[16] = 1st administration, 5 mg/kg i.d., 5 min, 5 mg/kg
[17] = 1st administration, 5 mg/kg i.d., 10 min, 5 mg/kg
[18] = 1st administration, 5 mg/kg i.d., 15 min, 5 mg/kg
[19] = 1st administration, 5 mg/kg i.d., 30 min, 5 mg/kg
[20] = 1st administration, 5 mg/kg i.d., 60 min, 5 mg/kg
[21] = 1st administration, 5 mg/kg i.d., 120 min, 5 mg/kg
[22] = 1st administration, 5 mg/kg i.d., 180 min, 5 mg/kg
[23] = 2nd administration, 5 mg/kg i.d., 5 min, 5 mg/kg
[24] = 2nd administration, 5 mg/kg i.d., 10 min, 5 mg/kg
[25] = 2nd administration, 5 mg/kg i.d., 15 min, 5 mg/kg
[26] = 2nd administration, 5 mg/kg i.d., 30 min, 5 mg/kg
[27] = 2nd administration, 5 mg/kg i.d., 60 min, 5 mg/kg
[28] = 2nd administration, 5 mg/kg i.d., 120 min, 5 mg/kg
[29] = 2nd administration, 5 mg/kg i.d., 180 min, 5 mg/kg

## O=[N+]([O-])O[C@@H]1CO[C@H]2[C@@H]1OC[C@@H]2O [IS-5-MN, isosorbide 5-mononitrate, reference compound]
5 mg/kg i.d.
  fall in the BPs, first administration, on average: -30 mmHg
  return of BP to control value after second administration: rapid return to the control value
[1]
  ΔBPd average: -21
  ΔBPs average: -30
  ΔLVEDP average: -3
  Δdp/dt average: -175
[2]
  ΔBPd average: -18
  ΔBPs average: -26
  ΔLVEDP average: -3
  Δdp/dt average: -175
[3]
  ΔBPd average: -16
  ΔBPs average: -25
  ΔLVEDP average: -3
  Δdp/dt average: -150
[4]
  ΔBPd average: -13
  ΔBPs average: -24
  ΔLVEDP average: -3
  Δdp/dt average: -175
[5]
  ΔBPd average: -12
  ΔBPs average: -23
  ΔLVEDP average: -1
  Δdp/dt average: -200
[6]
  ΔBPd average: 3
  ΔBPs average: -5
  ΔLVEDP average: -2
  Δdp/dt average: 75
[7]
  ΔBPd average: 3
  ΔBPs average: -4
  ΔLVEDP average: -2
  Δdp/dt average: 100
  Δdp/dt: 100
dogs, two i.d. administrations
  development of tachyphylaxis after repeated administration: tachyphylaxis after repeated administration
[8]
  maximum fall in the BP after second administration: -19 mmHg
  time of maximum effect on BPs after first administration: 5 min
  time of maximum fall in the BP after second administration: 5 min
[9]
  ΔBPd average: -13
  ΔBPs average: -19
  ΔLVEDP average: -1
  Δdp/dt average: -125
[10]
  ΔBPd average: -11
  ΔBPs average: -15
  ΔLVEDP average: -2
  Δdp/dt average: -75
[11]
  ΔBPd average: -9
  ΔBPs average: -13
  ΔLVEDP average: -1
  Δdp/dt average: -100
[12]
  ΔBPd average: -5
  ΔBPs average: -9
  ΔLVEDP average: -1
  Δdp/dt average: 0
[13]
  ΔBPd average: -4
  ΔBPs average: -7
  ΔLVEDP average: -2
  Δdp/dt average: 50
[14]
  ΔBPd average: -5
  ΔBPs average: -6
  ΔLVEDP average: -1
  Δdp/dt average: 100
[15]
  ΔBPd average: -1
  ΔBPs average: -4
  ΔLVEDP average: -2
  Δdp/dt average: 175
[16]
  ΔBPd: -15 and -25 and -20
  ΔBPs: -25 and -35 and -30
  ΔHR: 0 and 5
  ΔLVEDP: -3 and -4 and -2
  Δdp/dt: -200 and -100 and -300
[17]
  ΔBPd: -15 and -20
  ΔBPs: -25 and -30
  ΔHR: 0 and 5
  ΔLVEDP: -3 and -5 and -1
  Δdp/dt: -300 and 0 and -100
[18]
  ΔBPd: -15 and -10 and -20
  ΔBPs: -25 and -20 and -30
  ΔHR: -5 and 5 and 0
  ΔLVEDP: -3 and -5 and -1
  Δdp/dt: -200 and 0 and -100 and -300
[19]
  ΔBPd: -15 and -10
  ΔBPs: -35 and -20 and -25 and -15
  ΔHR: -15 and 5 and 0
  ΔLVEDP: -1 and -5 and -3
  Δdp/dt: -300 and 0 and -100
[20]
  ΔBPd: -20 and 0 and -15
  ΔBPs: -35 and -10 and -25 and -20
  ΔHR: -20 and 10 and -5 and 0
  ΔLVEDP: 0 and -2 and -3 and -1
  Δdp/dt: -400 and 0 and -100 and -300
[21]
  ΔBPd: 10 and 0 and -5 and 5
  ΔBPs: 0 and -15 and -5
  ΔHR: 0 and 10 and 5
  ΔLVEDP: -1 and -3 and -2
  Δdp/dt: 400 and 0 and -100
[22]
  ΔBPd: 5 and 0 and -5 and 10
  ΔBPs: -5 and 0 and -15 and 5
  ΔHR: -5 and 10 and 5
  ΔLVEDP: -3 and -1 and -5 and 0
[23]
  ΔBPd: -5 and -15
  ΔBPs: -15 and -20
  ΔHR: 0 and 5
  ΔLVEDP: -2 and 0
  Δdp/dt: -200 and -100
2nd administration, 5 mg/kg i.d., 10 min
  ΔBPs: -15
[24]
  ΔBPd: -5 and -15
  ΔHR: 0 and 5
  ΔLVEDP: -2 and -1
  Δdp/dt: -200 and 0 and -100
2nd administration, 5 mg/kg i.d., 15 min
  Δdp/dt: -100
[25]
  ΔBPd: -5 and -15 and -10
  ΔBPs: -15 and -10
  ΔHR: -5 and 0 and 5
  ΔLVEDP: -2 and -1 and 0
2nd administration, 5 mg/kg i.d., 30 min
  Δdp/dt: 0
[26]
  ΔBPd: 0 and -10 and -5
  ΔBPs: -10 and -5
  ΔHR: 0 and 5
  ΔLVEDP: -2 and -1 and 0
[27]
  ΔBPd: 5 and -10 and 0
  ΔBPs: 0 and -10 and -15 and -5
  ΔHR: 5 and 0 and -5
  ΔLVEDP: -2 and -3 and -1
  Δdp/dt: 100 and 0 and -100 and 200
[28]
  ΔBPd: 0 and -15 and -5
  ΔBPs: -5 and -15 and 0
  ΔHR: 5 and -5 and 10
  ΔLVEDP: -2 and 1
  Δdp/dt: 0 and 100 and 300
[29]
  ΔBPd: 0 and -5
  ΔBPs: -5 and 0
  ΔHR: 5 and 15 and 0
  ΔLVEDP: -2 and -3 and -1
  Δdp/dt: 100 and 200 and 300
